According to ChEMBL document CHEMBL1201862, “PubChem BioAssay data set” (2004):
“And” between values parts separate entries of the source, which are not always exact repeats. Identical values can stand only once. The source made the active and inactive calls.

Experiments:
[1] = system: Vero; assay: mammalian cell viability reduction – secondary assay, cytotoxicity control for West Nile virus antiviral project, dose response (AID 1650); assay type: functional; conditions: Chlorocebus sabaeus
[2] = reduced cellular PGC1a acetyl-lysine signal – cell-based, cherry-picked samples, dose response (AID 720514); assay type: functional;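 also: potency may reflect raised or lowered acetylation signal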
[3] = viability of uninfected HEp-2 cells – cell-based, HTS, cytotoxicity control for RSV inhibitor project, dose response (AID 2410); assay type: functional; conditions: human respiratory syncytial virus
[4] = viability loss of HPDE-C7K cells – cell-based, fluorescence, HTS, primary screen (AID 431); assay type: functional; conditions: Homo sapiens
[5] = HPDE-C7 pancreatic duct cell viability loss – fluorescence, HTS (AID 430); assay type: functional, cell-based; conditions: Homo sapiens
[6] = system: Vero; assay: inhibition of WNV-induced cytopathic effect – cell-based, CPE readout (AID 1621); assay type: functional; conditions: Chlorocebus sabaeus
[7] = system: Vero; assay: cells; assay type: functional; conditions: Chlorocebus sabaeus
[8] = molecular target: T1, Bcl-2-related protein A1 (Mus musculus, UniProt Q07440); assay: displacement of Bid BH3 peptide from Bfl-1 – biochemical, fluorescence polarization, FITC-Bid, mouse, primary screen (AID 432)
T1 sequence (Q07440 whole entry): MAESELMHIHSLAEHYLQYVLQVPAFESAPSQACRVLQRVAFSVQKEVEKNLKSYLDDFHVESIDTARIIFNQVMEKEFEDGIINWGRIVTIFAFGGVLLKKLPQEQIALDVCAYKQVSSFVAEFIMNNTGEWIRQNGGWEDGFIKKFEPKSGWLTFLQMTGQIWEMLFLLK

[9] = molecular target: T1, Bcl-2-related protein A1; assay: small-molecule antagonists of Bfl-1/BH3 interaction – biochemical, TR-FRET, mouse Bfl-1, confirmation (AID 621);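 also: TR-FRET binding of GST-Bfl-1 to FITC-labelled Bid peptide via terbium antibody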
[10] = molecular target: Glyceraldehyde-3-phosphate dehydrogenase (Homo sapiens, UniProt P04406)
Sequence of Glyceraldehyde-3-phosphate dehydrogenase (P04406 whole entry): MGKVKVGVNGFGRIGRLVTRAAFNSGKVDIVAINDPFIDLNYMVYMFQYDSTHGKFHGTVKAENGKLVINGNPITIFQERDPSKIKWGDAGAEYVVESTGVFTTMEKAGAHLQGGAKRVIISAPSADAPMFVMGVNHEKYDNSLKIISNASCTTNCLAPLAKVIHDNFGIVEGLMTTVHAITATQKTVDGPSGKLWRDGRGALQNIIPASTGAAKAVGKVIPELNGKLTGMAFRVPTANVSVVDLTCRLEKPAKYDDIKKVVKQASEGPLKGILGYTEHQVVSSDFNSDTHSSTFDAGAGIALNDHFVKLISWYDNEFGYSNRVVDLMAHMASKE

[11] = molecular target: T1, Bcl-2-related protein A1; assay: Bfl-1 binding inhibitors, SAR follow-up, biochemical, fluorescence polarization (AID 1070)
[12] = molecular target: T2, Tyrosine-protein phosphatase non-receptor type 7 (Homo sapiens, UniProt P35236); assay: HePTP tyrosine phosphatase activity blockers – biochemical, absorbance, leukemia target, primary screen (AID 521); assay type: functional
T2 sequence (P35236 whole entry): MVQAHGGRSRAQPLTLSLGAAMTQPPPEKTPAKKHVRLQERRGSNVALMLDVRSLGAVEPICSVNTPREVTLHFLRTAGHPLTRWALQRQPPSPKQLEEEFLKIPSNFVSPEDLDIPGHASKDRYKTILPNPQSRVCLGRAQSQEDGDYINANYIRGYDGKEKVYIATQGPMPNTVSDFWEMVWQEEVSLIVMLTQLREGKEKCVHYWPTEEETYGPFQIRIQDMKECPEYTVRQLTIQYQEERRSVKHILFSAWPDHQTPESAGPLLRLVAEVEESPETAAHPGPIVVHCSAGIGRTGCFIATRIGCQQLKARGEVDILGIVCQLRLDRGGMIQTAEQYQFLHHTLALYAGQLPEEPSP

[13] = molecular target: Voltage-gated inwardly rectifying potassium channel KCNH2 (Homo sapiens, UniProt Q12809); assay: concentration-dependent hERG rescue from blockers – cell-based, thallium flux, dose response (AID 2121); assay type: ADME
Sequence of Voltage-gated inwardly rectifying potassium channel KCNH2 (Q12809 whole entry): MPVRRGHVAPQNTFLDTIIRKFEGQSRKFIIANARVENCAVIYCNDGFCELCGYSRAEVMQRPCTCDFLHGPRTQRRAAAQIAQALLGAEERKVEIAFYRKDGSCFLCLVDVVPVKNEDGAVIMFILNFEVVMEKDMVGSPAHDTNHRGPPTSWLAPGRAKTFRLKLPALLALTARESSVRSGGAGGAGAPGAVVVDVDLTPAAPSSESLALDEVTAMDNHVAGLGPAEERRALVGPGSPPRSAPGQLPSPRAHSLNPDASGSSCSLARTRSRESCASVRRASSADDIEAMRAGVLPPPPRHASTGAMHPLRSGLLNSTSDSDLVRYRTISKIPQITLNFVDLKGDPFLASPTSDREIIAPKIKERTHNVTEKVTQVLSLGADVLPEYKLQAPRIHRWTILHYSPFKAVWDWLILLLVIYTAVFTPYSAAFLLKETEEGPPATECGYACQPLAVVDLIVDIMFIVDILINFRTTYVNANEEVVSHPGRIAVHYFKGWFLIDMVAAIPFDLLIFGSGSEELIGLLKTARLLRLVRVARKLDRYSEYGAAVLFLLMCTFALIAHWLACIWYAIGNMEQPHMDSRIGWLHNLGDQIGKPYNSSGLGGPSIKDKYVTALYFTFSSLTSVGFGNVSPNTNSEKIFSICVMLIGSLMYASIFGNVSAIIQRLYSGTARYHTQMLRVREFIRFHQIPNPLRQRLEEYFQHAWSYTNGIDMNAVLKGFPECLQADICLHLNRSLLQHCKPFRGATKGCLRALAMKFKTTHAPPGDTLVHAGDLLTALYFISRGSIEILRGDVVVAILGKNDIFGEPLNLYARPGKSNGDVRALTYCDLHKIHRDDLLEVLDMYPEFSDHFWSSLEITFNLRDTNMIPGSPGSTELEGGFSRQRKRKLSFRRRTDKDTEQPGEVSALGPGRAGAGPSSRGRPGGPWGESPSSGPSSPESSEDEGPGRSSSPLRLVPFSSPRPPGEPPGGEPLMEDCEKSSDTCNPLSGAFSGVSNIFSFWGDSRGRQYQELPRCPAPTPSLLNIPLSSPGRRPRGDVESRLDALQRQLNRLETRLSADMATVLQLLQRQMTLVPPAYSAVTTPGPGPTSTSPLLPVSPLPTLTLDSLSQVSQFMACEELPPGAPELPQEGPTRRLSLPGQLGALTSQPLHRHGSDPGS

[14] = molecular target: T3, Sphingosine 1-phosphate receptor 2 (Homo sapiens, UniProt O95136); assay: Dose Response Cell Based Assay for Agonists of the S1P2 Receptor of Purchased Analogues. [Related pubchem assays: 729, 843, 854, 736 ]; assay type: functional
T3 sequence (O95136 whole entry): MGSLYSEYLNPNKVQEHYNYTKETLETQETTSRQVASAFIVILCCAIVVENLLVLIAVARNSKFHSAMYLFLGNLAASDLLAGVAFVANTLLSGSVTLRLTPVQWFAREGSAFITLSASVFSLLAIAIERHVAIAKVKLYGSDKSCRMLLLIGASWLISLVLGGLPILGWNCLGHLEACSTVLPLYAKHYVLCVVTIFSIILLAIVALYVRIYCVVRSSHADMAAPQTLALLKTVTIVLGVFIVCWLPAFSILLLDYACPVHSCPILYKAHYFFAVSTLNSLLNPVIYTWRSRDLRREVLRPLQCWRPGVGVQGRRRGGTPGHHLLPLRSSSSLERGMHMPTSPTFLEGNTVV

[15] = molecular target: T4, Protein skinhead-1 (Caenorhabditis elegans, UniProt P34707); assay type: functional
T4 sequence (P34707 whole entry): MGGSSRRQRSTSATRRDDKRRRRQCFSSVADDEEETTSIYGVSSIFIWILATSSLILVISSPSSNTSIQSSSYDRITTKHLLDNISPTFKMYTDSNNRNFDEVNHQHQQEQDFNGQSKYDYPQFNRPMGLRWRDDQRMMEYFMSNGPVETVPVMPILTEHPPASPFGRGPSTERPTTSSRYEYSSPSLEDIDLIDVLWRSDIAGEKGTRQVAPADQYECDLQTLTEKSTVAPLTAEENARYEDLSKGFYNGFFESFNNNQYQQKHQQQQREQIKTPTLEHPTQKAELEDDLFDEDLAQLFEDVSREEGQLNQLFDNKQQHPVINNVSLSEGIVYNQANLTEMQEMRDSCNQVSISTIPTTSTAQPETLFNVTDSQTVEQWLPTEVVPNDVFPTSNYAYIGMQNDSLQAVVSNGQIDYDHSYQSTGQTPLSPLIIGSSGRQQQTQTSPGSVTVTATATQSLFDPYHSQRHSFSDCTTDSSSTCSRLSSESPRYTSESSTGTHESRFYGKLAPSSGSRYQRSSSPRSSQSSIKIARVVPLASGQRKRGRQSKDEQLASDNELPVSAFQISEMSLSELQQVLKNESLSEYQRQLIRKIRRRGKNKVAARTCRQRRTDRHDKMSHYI

[16] = molecular target: T3, Sphingosine 1-phosphate receptor 2; assay: Dose Response Cell Based Assay for Antagonists of the S1P2 Receptor. [Related pubchem assays: 856, 736 ]; assay type: functional
[17] = molecular target: Cytochrome P450 2D6 (Homo sapiens, UniProt P10635); assay: qHTS Assay for Inhibitors and Substrates of Cytochrome P450 2D6. [Related pubchem assays: 410 ]; assay type: ADME; conditions: read-out: Potency
Sequence of Cytochrome P450 2D6 (P10635 whole entry): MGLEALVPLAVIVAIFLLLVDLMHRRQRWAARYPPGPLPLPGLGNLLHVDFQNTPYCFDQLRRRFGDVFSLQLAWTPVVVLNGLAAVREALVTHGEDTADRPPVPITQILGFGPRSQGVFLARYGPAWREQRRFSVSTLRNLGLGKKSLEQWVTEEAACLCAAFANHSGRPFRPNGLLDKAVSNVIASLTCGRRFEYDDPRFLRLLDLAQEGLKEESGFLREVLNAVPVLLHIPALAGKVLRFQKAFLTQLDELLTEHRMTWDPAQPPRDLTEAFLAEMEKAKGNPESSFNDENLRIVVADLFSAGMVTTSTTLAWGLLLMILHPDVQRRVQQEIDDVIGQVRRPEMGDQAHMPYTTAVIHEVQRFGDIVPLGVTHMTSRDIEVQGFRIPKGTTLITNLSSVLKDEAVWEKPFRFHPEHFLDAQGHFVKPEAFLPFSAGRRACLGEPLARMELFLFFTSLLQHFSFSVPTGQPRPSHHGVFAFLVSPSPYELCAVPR

[18] = molecular target: Cytochrome P450 3A4 (Homo sapiens, UniProt P08684); conditions: Potency;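 also: confirmatory qHTS run detecting inhibitors and substrates of CYP3A4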
Sequence of Cytochrome P450 3A4 (P08684 whole entry): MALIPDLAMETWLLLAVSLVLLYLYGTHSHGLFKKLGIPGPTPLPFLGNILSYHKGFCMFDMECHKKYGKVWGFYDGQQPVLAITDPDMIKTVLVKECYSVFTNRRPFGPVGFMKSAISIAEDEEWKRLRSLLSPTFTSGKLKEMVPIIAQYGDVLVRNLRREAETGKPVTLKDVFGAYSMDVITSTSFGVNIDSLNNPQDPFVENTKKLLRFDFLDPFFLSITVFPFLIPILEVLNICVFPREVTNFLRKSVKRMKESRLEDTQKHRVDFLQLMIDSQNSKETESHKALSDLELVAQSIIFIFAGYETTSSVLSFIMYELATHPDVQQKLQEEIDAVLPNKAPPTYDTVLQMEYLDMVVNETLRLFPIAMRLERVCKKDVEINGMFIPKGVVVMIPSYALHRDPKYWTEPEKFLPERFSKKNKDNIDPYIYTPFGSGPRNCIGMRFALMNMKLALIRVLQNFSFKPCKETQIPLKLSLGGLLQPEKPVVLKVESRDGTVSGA

[19] = molecular target: Cytochrome P450 2C19 (Homo sapiens, UniProt P33261); assay: qHTS Assay for Inhibitors and Substrates of Cytochrome P450 2C19. [Related pubchem assays: 410 ]; assay type: ADME; conditions: read-out: Potency
Sequence of Cytochrome P450 2C19 (P33261 whole entry): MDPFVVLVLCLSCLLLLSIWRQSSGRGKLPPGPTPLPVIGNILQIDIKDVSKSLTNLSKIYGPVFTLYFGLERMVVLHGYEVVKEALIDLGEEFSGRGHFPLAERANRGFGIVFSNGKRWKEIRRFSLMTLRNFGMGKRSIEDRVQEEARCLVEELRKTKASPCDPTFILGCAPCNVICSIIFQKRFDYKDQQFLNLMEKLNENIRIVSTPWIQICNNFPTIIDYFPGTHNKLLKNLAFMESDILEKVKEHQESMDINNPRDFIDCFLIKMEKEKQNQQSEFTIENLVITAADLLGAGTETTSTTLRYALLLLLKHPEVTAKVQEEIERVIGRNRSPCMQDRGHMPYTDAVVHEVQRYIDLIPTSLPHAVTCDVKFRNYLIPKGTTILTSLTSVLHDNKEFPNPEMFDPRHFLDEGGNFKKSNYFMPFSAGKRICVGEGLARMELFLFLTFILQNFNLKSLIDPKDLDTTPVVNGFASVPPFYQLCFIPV

Question: Which CC50 [1] does the source give for `CCOC(=O)C(CC)(CC)C(=O)/C=C/c1ccc(Br)cc1` here?
Answer: 40.6 µM (active)

Question: And the AC50 [2]?
Answer: 20.6 µM (active)

Question: Which results are given for `Cc1oc(C)c2c(=O)ccc3c(c12)OC(N)=C(C#N)C3c1ccc(F)cc1` (centres undefined)?
Answer: CC50 [3]: 21.6 µM (active); EC50 [4]: 9.61 µM (active); EC50 [5]: 10.3 µM (active)

Question: With `CCCN1CCN(CCCNC(=O)c2cc3c(s2)-c2ccccc2OC3)CC1` as the compound, how does the IC50 [6] read?
Answer: 20 µM (active)

Question: And the CC50 [7]?
Answer: > 25 µM (active)

Question: Which results are given for `COc1ccc2nc(O)c(-c3noc(-c4ccc(F)cc4)n3)cc2c1`?
Answer: IC50 [8]: 6.15 µM (active); IC50 [9]: 4.45 µM (active) and 3.6 µM (active); IC50 [10]: > 100 µM (not active); IC50 [11]: 3.85 µM (active); IC50 [12]: 2.18 µM (active)

Question: With `CCCn1c(SCC(N)=O)nc2c(c1=O)C1(CCCC1)Cc1ccccc1-2` as the compound, how does the EC50 [13] read?
Answer: 4.67 µM (active)

Question: For `Cc1cc(C(=O)CN2C(=O)NC3(CCc4ccccc43)C2=O)c(C)n1Cc1ccccc1` (centres undefined), which EC50 [14] is on record?
Answer: > 30 µM (not active)

Question: What does the source list for `Cc1ccc(NC2=Nc3ccccc3N3C2=Nc2c(c(C)nn2-c2ccccc2)C3c2ccc(O)c(O)c2)cc1` (centres undefined)?
Answer: IC50 [15]: > 100 µM (inactive); IC50 [16]: 4.5 µM (active)

Question: With `CCCCCCC#CC1C=CC(OC(C)=O)C(COC(C)=O)O1` (centres undefined) as the compound, how does the AC50 [17] read?
Answer: 7.94 µM (inconclusive)

Question: What about the AC50 [18] of the same compound?
Answer: 3.98 µM (inconclusive)

Question: And the AC50 [19]?
Answer: 3.98 µM (inconclusive)
